Values of other authors, collected in patent publication US20070231388A1, “Novel Pharmaceutical Dosage Form and Manufacturing Process” (Atlana Pharma AG, priority 2004, published 2007).

Conditions: in comparison to pantoprazole itself or to pantoprazole sodium sesquihydrate

For `COc1ccnc(C[S+]([O-])c2nc3cc(OC(F)F)ccc3[n-]2)c1OC.COc1ccnc(C[S+]([O-])c2nc3cc(OC(F)F)ccc3[n-]2)c1OC.O.O.[Mg+2]` (stereo not shown) [Magnesium bis[5-[difluoromethoxy]-2-[[3,4-dimethoxy-2-pyridinyl]-methyl]sulfinyl]-1H-benzimidazolide]dihydrate], the stability properties is listed as “improved stability properties”.
